Data on eight molecules can be found in ChEMBL document CHEMBL3991601, “The target landscape of clinical kinase drugs” (Science, 2017).

Assay [1] has as its target T1, Interleukin-1 receptor-associated kinase 4 (Homo sapiens, UniProt Q9NWZ3).
T1 sequence (Q9NWZ3 whole entry): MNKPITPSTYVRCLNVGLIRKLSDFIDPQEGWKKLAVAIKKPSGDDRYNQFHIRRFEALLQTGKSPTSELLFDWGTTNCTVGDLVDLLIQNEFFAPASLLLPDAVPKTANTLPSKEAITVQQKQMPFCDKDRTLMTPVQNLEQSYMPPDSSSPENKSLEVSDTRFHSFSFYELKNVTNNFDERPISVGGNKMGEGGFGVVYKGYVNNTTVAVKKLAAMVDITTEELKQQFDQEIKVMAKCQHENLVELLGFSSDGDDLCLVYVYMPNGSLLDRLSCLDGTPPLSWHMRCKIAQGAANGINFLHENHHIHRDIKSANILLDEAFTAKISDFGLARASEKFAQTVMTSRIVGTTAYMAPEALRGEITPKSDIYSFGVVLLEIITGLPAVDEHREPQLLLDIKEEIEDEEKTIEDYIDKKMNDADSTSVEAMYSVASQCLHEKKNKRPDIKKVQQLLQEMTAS

Assay [2] has as its target Serine/threonine-protein kinase 16 (Homo sapiens, UniProt O75716).
Another assay concerns the target Adenosine kinase (Homo sapiens, UniProt P55263).
The target of assay [3] is Mitogen-activated protein kinase 8 (Homo sapiens, UniProt P45983).
Chain of Mitogen-activated protein kinase 8 (P45983 whole entry): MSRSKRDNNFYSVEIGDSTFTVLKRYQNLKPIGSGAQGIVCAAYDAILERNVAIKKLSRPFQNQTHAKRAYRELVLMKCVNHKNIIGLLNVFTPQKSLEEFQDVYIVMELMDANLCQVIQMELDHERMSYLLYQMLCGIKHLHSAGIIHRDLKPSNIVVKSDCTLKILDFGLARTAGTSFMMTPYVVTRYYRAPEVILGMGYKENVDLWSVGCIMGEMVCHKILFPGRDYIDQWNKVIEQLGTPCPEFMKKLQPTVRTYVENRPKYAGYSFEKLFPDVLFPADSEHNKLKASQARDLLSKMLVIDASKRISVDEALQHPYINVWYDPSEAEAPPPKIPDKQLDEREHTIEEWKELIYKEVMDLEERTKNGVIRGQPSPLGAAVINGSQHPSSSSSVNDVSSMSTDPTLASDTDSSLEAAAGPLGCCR
Assay [4] has as its target T2, Dynamin-like GTPase OPA1, mitochondrial (Homo sapiens, UniProt O60313).
T2 sequence (O60313 whole entry): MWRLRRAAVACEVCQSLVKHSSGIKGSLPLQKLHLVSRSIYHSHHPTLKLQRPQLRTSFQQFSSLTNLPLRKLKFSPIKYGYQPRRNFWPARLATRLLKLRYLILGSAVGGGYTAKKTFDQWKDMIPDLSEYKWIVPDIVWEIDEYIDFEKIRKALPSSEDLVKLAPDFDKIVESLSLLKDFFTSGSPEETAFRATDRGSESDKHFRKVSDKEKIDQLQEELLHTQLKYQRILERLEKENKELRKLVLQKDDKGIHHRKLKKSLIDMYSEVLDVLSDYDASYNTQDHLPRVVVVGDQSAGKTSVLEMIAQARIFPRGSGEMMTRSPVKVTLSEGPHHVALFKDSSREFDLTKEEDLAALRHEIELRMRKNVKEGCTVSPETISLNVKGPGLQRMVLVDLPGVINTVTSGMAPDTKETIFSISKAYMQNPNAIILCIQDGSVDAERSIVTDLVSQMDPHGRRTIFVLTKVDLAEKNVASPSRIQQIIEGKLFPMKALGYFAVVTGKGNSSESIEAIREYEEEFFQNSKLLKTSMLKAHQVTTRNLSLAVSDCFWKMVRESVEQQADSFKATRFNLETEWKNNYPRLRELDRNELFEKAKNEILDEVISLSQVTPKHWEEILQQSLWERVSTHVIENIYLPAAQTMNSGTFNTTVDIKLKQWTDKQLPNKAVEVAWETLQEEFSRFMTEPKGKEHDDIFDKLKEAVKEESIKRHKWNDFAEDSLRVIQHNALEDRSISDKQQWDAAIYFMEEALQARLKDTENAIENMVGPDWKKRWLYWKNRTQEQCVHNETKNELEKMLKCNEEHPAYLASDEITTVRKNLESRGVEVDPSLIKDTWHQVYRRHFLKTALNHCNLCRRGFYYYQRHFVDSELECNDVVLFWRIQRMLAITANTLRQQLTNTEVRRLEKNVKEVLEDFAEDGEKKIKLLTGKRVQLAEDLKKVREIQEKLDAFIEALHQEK

The target of assay [5] is U5 small nuclear ribonucleoprotein 200 kDa helicase (Homo sapiens, UniProt O75643).
For assay [6], the target named is Platelet-derived growth factor receptor beta (Homo sapiens, UniProt P09619).
Chain of Platelet-derived growth factor receptor beta (P09619 whole entry): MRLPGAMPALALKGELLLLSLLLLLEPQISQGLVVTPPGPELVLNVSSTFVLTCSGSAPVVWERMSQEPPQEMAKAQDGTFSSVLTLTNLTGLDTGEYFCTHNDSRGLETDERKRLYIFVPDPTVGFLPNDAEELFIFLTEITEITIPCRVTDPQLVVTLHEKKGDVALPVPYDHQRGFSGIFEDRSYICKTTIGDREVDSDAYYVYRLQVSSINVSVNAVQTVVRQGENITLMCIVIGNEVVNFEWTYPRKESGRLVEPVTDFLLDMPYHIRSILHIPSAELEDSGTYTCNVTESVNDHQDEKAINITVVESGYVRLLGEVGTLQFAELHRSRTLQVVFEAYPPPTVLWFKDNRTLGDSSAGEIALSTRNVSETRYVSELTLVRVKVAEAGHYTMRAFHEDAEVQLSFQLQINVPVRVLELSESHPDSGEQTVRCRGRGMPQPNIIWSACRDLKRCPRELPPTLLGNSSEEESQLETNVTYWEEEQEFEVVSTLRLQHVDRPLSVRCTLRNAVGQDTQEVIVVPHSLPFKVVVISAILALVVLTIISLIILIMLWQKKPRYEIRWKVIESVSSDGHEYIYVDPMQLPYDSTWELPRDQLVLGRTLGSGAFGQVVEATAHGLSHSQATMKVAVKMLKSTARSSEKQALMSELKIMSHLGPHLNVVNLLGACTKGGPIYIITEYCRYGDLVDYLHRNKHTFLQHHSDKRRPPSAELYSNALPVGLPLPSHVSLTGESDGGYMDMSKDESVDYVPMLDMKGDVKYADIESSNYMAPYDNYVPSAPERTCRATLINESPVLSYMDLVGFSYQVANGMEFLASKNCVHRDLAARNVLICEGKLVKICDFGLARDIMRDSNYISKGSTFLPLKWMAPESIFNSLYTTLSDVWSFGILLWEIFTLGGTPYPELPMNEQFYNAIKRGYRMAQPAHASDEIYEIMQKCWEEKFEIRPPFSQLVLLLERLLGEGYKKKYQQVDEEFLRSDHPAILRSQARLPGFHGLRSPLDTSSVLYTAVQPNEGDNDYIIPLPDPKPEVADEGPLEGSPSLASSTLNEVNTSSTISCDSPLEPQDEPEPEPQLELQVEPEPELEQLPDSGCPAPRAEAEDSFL
Assay [7] addresses GTP-binding nuclear protein Ran (Homo sapiens, UniProt P62826).
Assay [8] deals with Serine/threonine-protein kinase 26 (Homo sapiens, UniProt Q9P289).
Chain of Serine/threonine-protein kinase 26 (Q9P289 whole entry): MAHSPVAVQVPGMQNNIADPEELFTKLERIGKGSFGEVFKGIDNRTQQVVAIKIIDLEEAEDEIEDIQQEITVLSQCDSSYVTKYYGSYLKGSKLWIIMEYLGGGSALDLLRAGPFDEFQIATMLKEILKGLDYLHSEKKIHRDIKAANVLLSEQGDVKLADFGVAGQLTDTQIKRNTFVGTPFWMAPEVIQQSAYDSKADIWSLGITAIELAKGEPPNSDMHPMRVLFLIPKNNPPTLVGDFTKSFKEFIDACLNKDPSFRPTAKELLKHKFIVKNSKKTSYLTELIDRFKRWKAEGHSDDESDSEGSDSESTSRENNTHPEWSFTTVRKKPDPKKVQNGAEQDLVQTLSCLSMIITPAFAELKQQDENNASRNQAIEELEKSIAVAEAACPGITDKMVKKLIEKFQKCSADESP
Assay [9] concerns the target Bone morphogenetic protein receptor type-1B (Homo sapiens, UniProt O00238).
Assay [10] has as its target Tyrosine-protein kinase Fer (Homo sapiens, UniProt P16591).
Assay [11] addresses T3, Glycogen phosphorylase, liver form (Homo sapiens, UniProt P06737).
T3 sequence (P06737 whole entry): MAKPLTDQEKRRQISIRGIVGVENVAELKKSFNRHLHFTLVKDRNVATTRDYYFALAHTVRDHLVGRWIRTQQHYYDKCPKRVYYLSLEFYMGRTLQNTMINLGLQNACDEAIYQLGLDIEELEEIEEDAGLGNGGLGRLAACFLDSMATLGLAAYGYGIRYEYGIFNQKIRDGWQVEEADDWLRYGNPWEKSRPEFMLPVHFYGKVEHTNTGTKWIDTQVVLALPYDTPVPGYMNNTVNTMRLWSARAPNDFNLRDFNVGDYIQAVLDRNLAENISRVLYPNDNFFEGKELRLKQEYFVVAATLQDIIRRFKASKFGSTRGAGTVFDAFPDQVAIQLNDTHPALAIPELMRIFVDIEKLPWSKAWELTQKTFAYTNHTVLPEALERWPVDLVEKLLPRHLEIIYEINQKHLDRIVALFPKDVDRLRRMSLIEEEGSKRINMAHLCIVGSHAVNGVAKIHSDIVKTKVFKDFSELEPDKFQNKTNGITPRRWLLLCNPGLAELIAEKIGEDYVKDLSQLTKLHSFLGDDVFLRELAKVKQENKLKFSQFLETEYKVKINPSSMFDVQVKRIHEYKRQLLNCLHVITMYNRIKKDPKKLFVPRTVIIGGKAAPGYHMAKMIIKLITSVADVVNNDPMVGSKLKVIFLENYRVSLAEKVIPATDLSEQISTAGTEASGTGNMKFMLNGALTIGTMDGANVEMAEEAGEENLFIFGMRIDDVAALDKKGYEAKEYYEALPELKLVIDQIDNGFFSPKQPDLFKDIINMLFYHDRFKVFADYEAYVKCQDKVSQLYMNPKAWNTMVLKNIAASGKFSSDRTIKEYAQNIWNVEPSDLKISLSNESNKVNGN
In kind it is subcellular, K-562, COLO 205, SK-N-BE(2) and MV-4-11, Cell lysate. The settings on record: read-out: Kd apparent.

Assay [12] concerns the target DnaJ homolog subfamily A member 1 (Homo sapiens, UniProt P31689).
Assay [13] concerns the target Protein kinase C alpha type (Homo sapiens, UniProt P17252).

SMILES strings stand for the structures. Calls of active or inactive are those of the source. Rule as the data show it, for most assays here: actives have a measured Kd and inactives only a lower limit.
Also: in the data inactive means no Kd found up to 30 µM.

Chain of Adenosine kinase (P55263 whole entry): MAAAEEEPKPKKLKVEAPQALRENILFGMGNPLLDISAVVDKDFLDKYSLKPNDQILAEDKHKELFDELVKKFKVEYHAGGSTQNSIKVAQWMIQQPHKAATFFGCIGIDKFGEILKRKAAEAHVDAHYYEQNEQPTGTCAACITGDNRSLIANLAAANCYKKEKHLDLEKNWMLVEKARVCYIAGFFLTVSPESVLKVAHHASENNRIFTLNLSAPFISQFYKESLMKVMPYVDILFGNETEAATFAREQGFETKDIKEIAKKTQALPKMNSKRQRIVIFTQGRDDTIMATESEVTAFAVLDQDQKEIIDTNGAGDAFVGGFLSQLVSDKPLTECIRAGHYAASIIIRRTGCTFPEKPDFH
Chain of Tyrosine-protein kinase Fer (P16591 whole entry): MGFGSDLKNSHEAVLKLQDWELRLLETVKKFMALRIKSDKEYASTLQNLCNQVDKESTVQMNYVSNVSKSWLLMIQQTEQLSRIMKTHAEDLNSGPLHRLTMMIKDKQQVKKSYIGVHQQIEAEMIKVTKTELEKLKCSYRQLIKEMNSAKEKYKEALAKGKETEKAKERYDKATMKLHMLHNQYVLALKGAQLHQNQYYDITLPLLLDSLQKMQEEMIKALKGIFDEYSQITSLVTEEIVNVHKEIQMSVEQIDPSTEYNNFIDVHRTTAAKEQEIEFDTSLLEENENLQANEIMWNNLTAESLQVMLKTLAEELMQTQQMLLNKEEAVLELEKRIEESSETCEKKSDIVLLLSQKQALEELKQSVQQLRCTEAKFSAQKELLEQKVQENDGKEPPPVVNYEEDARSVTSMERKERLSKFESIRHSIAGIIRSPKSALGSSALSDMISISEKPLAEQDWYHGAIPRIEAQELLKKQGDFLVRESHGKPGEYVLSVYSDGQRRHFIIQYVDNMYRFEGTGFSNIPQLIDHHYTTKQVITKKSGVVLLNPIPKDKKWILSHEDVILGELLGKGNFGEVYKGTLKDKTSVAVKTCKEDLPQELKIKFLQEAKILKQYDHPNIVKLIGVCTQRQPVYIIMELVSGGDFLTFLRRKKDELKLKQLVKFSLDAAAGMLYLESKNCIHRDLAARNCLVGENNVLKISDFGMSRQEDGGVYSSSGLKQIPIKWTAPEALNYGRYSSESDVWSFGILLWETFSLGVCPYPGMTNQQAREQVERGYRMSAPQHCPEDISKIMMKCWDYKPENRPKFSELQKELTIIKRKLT
Chain of Serine/threonine-protein kinase 16 (O75716 whole entry): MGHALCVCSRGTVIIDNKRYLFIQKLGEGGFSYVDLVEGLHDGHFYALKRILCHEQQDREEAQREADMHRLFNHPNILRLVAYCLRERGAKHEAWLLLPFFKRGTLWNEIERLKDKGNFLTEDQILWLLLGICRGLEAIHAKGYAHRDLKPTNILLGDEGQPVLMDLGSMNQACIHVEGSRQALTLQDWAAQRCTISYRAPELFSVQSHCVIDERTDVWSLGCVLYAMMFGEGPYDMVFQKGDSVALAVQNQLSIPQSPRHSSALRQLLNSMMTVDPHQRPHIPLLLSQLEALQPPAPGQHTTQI
Chain of Bone morphogenetic protein receptor type-1B (O00238 whole entry): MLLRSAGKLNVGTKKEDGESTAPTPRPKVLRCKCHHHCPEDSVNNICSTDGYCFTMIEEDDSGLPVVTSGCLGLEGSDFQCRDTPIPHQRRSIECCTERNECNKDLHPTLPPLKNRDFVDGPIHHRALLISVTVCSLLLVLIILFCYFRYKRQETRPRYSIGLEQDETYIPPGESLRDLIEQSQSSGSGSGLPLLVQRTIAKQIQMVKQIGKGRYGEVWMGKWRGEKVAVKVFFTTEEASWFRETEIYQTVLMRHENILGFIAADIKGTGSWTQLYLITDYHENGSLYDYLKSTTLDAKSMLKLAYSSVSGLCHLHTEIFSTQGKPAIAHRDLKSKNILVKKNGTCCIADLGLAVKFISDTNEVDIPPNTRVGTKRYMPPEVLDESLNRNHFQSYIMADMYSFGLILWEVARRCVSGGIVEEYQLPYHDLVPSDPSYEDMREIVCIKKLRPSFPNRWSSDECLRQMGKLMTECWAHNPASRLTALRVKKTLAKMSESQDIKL
Chain of DnaJ homolog subfamily A member 1 (P31689 whole entry): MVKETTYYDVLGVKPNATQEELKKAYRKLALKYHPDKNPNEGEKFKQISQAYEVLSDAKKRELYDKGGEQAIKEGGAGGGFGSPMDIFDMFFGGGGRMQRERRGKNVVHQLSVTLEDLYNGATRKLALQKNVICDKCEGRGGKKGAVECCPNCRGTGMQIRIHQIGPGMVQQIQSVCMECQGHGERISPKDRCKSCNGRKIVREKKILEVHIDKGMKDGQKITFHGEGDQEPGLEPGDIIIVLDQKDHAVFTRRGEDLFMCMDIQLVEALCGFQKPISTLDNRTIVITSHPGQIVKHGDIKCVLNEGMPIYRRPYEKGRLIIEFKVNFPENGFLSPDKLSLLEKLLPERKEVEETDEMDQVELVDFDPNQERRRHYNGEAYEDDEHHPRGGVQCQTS

With `CNC(=O)c1ccc(-c2cnc3ncc(Cc4ccc5ncccc5c4)n3n2)cc1F` [CAPMATINIB], the Kd (in assay [1]; in [2]; at Adenosine kinase; in [3]; in assay [4]; in assay [5]) was > 30 µM (inactive) throughout. For the same molecule, the Kd in assay [6], in assay [7], in assay [8], in [9], in assay [10] and in assay [11] was > 30 µM (inactive) in each case. For the same molecule, the Kd in [12] and in [13] was > 30 µM (inactive) throughout.

Take `CCS(=O)(=O)N1CC(CC#N)(n2cc(-c3ncnc4[nH]ccc34)cn2)C1` [BARICITINIB]: the Kd (in assay [1]; in assay [2]; on Adenosine kinase; in assay [3]; in assay [4]; in assay [5]) was > 30 µM (inactive) each time. Moreover, the Kd in assay [6], in assay [7], in [8], in assay [9], in assay [10] and in [11] was > 30 µM (inactive) in each case. Moreover, the Kd in [12] is > 30 µM (inactive); in [13], 2.07 µM (active).

With `COc1ccc(-c2ccc3c(N4CCOC[C@@H]4C)nc(N4CCOC[C@@H]4C)nc3n2)cc1CO` [AZD-8055], the Kd (in assay [1]; in [2]; at Adenosine kinase; in [3]; in assay [4]; in assay [5]) was > 30 µM (inactive) throughout. For the same molecule, the Kd in [6], in [7], in assay [8], in assay [9], in [10] and in [11] was > 30 µM (inactive) throughout. For the same molecule, the Kd in [12] and in assay [13] was > 30 µM (inactive) throughout.

Regarding `O=C(O)[C@]1(Cc2cccc(Nc3nccs3)n2)CC[C@@H](Oc2cccc(Cl)c2F)CC1` [MK-5108], the Kd in assay [1] is > 30 µM (inactive); in assay [2], > 30 µM (inactive); at Adenosine kinase it was > 30 µM (inactive); in assay [3], 1.15 µM (active); in assay [4], > 30 µM (inactive); in assay [5], > 30 µM (inactive). Further, the Kd in assay [6] was > 30 µM (inactive); in assay [7], > 30 µM (inactive); in assay [8], > 30 µM (inactive); in [9], > 30 µM (inactive); in [10] it was 1.54 µM (active); in [11] it was > 30 µM (inactive). The Kd in assay [12] and in assay [13] was > 30 µM (inactive) each time.

Consider `C[C@@H](Nc1cc(F)cc(F)c1)c1cc(C(=O)N(C)C)cc2c(=O)cc(N3CCOCC3)oc12` [AZD-8186], for which the Kd (in assay [1]; in assay [2]; at Adenosine kinase; in [3]; in assay [4]; in assay [5]) was > 30 µM (inactive) in each case. Moreover, the Kd in [6], in assay [7], in assay [8], in assay [9], in [10] and in [11] was > 30 µM (inactive) in each case. Also, the Kd in assay [12] and in assay [13] was > 30 µM (inactive) each time.

For the molecule `C=CC(=O)N1CCC(Oc2cc3c(Nc4ccc(Cl)c(Cl)c4F)ncnc3cc2OC)CC1` [POZIOTINIB], the Kd (in assay [1]; in assay [2]; at Adenosine kinase; in assay [3]; in assay [4]; in assay [5]) was > 30 µM (inactive) throughout. Further, the Kd in assay [6], in assay [7], in [8], in assay [9], in [10] and in [11] was > 30 µM (inactive) throughout. The Kd in [12] and in [13] was > 30 µM (inactive) in each case.

As to `Cc1cc2c(F)c(Oc3ncnn4cc(OC[C@@H](C)OC(=O)[C@H](C)N)c(C)c34)ccc2[nH]1` [BRIVANIB ALANINATE], the Kd (in assay [1]; in assay [2]; at Adenosine kinase; in assay [3]; in assay [4]; in assay [5]) was > 30 µM (inactive) each time. Also, the Kd in [6] was 1.89 µM (active); in [7] it was > 30 µM (inactive); in assay [8] it was > 30 µM (inactive); in assay [9], > 30 µM (inactive); in assay [10] it was > 30 µM (inactive); in assay [11], > 30 µM (inactive). The Kd in assay [12] and in assay [13] was > 30 µM (inactive) in each case.

As for `C1=C/COCc2cc(ccc2OCCN2CCCC2)Nc2nccc(n2)-c2cccc(c2)COC/1` [PACRITINIB], the Kd was > 30 µM (inactive) in [1]; 1.87 µM (active) in assay [2]; > 30 µM (inactive) on Adenosine kinase; 1.96 µM (active) in [3]; > 30 µM (inactive) in assay [4]; > 30 µM (inactive) in assay [5]. Further, the Kd in [6] is 2.67 µM (active); in [7] it was > 30 µM (inactive); in [8] it was > 30 µM (inactive); in assay [9], > 30 µM (inactive); in assay [10], 3.66 µM (active); in assay [11], > 30 µM (inactive). Besides, the results for the Kd in assay [12] and in assay [13] were > 30 µM (inactive) and 0.934 µM (active), respectively.
